Experiment [1] concerns p-Tau in hippocampal neurons. The experiment is described as follows: Immunocytochemistry of phosphorylated tau and p-tau/PSD-95 co-localization. Format: cell-based, Sprague-Dawley rats. Conditions: for % co-localization of p-Tau and PSD-95 in Aβ1-42-treated neurons / p-Tau levels in Aβ1-42-treated neurons: Aβ1-42 1 μM plus leptin 10 nM or leptin(116-130). The protocol: Hippocampal cultures were prepared as previously (Moult et al, 2010). Neonatal Sprague-Dawley rats (1-3 d old) were […] killed by cervical dislocation in accordance with the UK Animals (Scientific Procedures Act) 1986 legislation. Hippocampi were removed, and after washing in HEPES-buffered saline comprising (mM) 135 NaCl; 5 KCl; 1 CaCl2; 1 MgCl2; 10 HEPES; and 25 D-glucose at […], were treated with papain (1.5 mg ml21; Sigma-Aldrich) for 20 min at 37° C. Dissociated cells were plated onto sterile dishes (35 mm diameter; Greiner Bio-One, Kremsmun-ster, Austria) treated with poly-D-lysine (20 μg ml^−1; 1-2 h). Cultures were maintained in serum replacement medium (SR2; Sigma-Aldrich) in a humidified atmosphere of 5% CO2 and […] at 37° C. for up to 2 wk.
Phosphorylated tau was labelled with primary antibody rabbit anti-tau (Ab-396) polyclonal antibody (1:500, Gen Script) corresponding to phosphorylation site of serine 396 (Y-K-S^P-P-V). To visualise p-tau labelling, neurons were then incubated for 30 min with Alexa fluor555 donkey anti-rabbit IgG secondary antibody (1:250, Thermo Fisher Scientific). For synaptic localisation of p-tau, a secondary primary antibody was then added to compare p-tau localization relative to the synaptic marker, PSD95 (mouse anti-PSD-95, 1:500, Thermo Fisher Scientific) for 30 min. PSD-95 labelling was visualized by incubating with a goat anti-mouse Alexa Fluor […] antibody (1:500; Thermo Fisher Scientific) for 30 min.
A Zeiss LSM510 confocal microscope was used for image acquisition and analysis. Images were obtained using a 10-s scan speed in single tracking mode or multi-tracking mode for dual labelling experiments. The intensity of immunostaining was measured off-line using Lasersharp software (Zeiss Lasersharp), whereby analysis lines of 50 μm length were drawn along randomly selected dendritic regions. All data were obtained from at least three different cultures from different animals. Imaging conditions including illumination intensity and photomultiplier gains were kept constant between treatments for each experiment. In addition, data were normalised relative to the mean fluorescence intensity obtained from control neurons. For synaptic co-localisation experiments, tau and PSD-95 positive immunostaining were compared. The number of tau-positive sites that co-localized with PSD-95 positive sites were counted and expressed as a percentage of total positive sites (peaks of intensity).

Experiment [2] concerns phosphorylated tau (p-tau). The experiment is described as follows: ELISA of phosphorylated tau relative to α-tubulin. Format: cell-based, human. Conditions: 10 nM; n=5. The procedure:
The human neuroblastoma cell line, SH-SY5Y (ECACC, UK) was maintained in Dulbecco's Modified Eagle Medium supplemented with glucose ([…]) and 10% (v/v) cosmic calf serum (Fisher Scientific, UK) at 37° C. in a humidified atmosphere of 5% CO2, 95% air and allowed to reach 70-80% confluence before seeding. Cells (passage 10-18) were plated at 10 000 cells per well in 96 well tissue culture plates (Nunc, VWR, UK) and at a density of 2×10^5 cells in 35 mm dishes for protein extraction. To induce differentiation, cells were cultured in DMEM supplemented with glucose ([…]), 1% (v/v) cosmic calf serum and 10 μM retinoic acid for 5 days. Thereafter they were incubated in DMEM supplemented with glucose ([…]), serum replacement 2 (2%; Sigma, UK) and 18 μM 5-fluorodeoxyuridine to inhibit proliferation of undifferentiated cells. The 50% of the medium was changed every 2-3 days and pharmacological treatment was carried out 7 days after switching to this medium. Reagents used were (from Sigma UK unless stated) 0.1-10 nM human leptin and leptin (116-130); 0.1-10 nM leptin (22-56; Bachem; Switzerland); 10 nM leptin (116-121) leptin (117-122), leptin (124-129) or leptin (125-130; all Severn Biotech, UK); 5 μM copper chloride; […], 5 μM WP1066 or 50 nM wortmannin. All treatments were added to the culture at the same time and survival assays were carried out after 96 h treatment. Protein samples for signaling ELISA were extracted 3 h after exposure to the relevant reagents and for biomarker expression after 72 hours.
Protein from cultures was extracted into 500 μl Tris-buffered saline containing protease inhibitor cocktail, and a Bradford assay used to determine protein concentration. Samples were diluted to give equal loading onto ELISA plates. Commercially available ELISA kits were used in accordance with the manufacturer's instructions to determine the ratio of pan-STAT3 to phospho-STAT3 (Sigma, UK) and pan-Akt to phospho-Akt (Sigma, UK) and the levels of alpha-tubulin and phosphorylated tau (Sigma, UK). Each protein sample was run in duplicate using samples derived from at least 5 biological repeats.
Hyper-phosphorylation of tau is the underpinning mechanism of the development of neurofibrillary tangles—one of the key pathological feature of AD. Human SH-SY5Y neuronal cells were exposed to Aβ1-42 alone or in combination with 10 nM leptin, leptin (116-130), leptin (116-121), leptin (117-122), leptin (124-129) or leptin (125-130). Protein was extracted for ELISA assay and the ratio of p-tau to the house-keeping protein α-tubulin determined (FIG. 11C). […] Thus for Aβ1-42-treated cells, 10 nM leptin and 10 nM leptin (116-130) reduced p-tau expression by 56.2±8.0% and 58.9+4.6% respectively compared with Aβ1-42 alone (n=5; P<0.001; FIG. 11C); an effect that was mirrored by 10 nM leptin (116-121) and leptin (117-122); 58.1±4.0% and 45.48±6.1% (n=5; P<0.001 and P<0.01 respectively; FIG. 11C), but not by 10 nM leptin (124-129) or leptin (125-130)(n=5; P>0.5; FIG. 11C).
(An ELISA detects its analyte on a solid surface through an enzyme-linked reagent.)

The text below walks through data of patent publication US20200255492A1, “LEPTIN PEPTIDES AND THEIR USE FOR TREATING NEUROLOGICAL DISORDERS” (UNIVERSITY OF DUNDEE, priority 2017, published 2020).

Take “Aβ1-42: amyloid beta 1-42, toxin used in the AD models [reference compound]”: in experiment [1] (1 μM), the “p-Tau staining, Aβ1-42 alone” value was “increases phosphorylation of tau” and the “synaptic levels of p-Tau (p-Tau/PSD-95), Aβ1-42 alone” value was “synaptic levels of p-Tau are increased”.

With “CSLPQT (listed as Mus musculus) [leptin (117-122)]”, in experiment [2], the “reduction of p-tau expression compared with Aβ1-42 alone” value (from here on “reduction of p-tau expression”) was found to be 45.48±6.1%.

With “SCSLPQ (listed as Mus musculus) [leptin (116-121)]”, the “reduction of p-tau expression” value in experiment [2] is given as 58.1±4.0%.

Consider “SCSLPQTSGLQKPES (listed as Mus musculus) [leptin (116-130)]”, for which the “reduction of p-tau expression” value in experiment [2] amounted to 58.9 ± 4.6%. Besides, in experiment [1], the “% co-localization of p-Tau and PSD-95 in Aβ1-42-treated neurons” value is “prevents Aβ1-42-dependent phosphorylation of tau and it trafficking to synapses”; the “p-Tau levels in Aβ1-42-treated neurons” value is “prevents Aβ1-42-dependent phosphorylation of tau”.

Regarding “leptin: the metabolic hormone leptin, whole (full length) leptin molecule; human leptin from Sigma in SH-SY5Y work”, the “reduction of p-tau expression” value in experiment [2] was 56.2±8.0%. For the same substance, in experiment [1], the “% co-localization of p-Tau and PSD-95 in Aβ1-42-treated neurons” value was “prevents Aβ1-42-driven tau phosphorylation and its targeting to synapses”; the “p-Tau levels in Aβ1-42-treated neurons” value was “prevents Aβ1-42-driven tau phosphorylation”.
